Series [1] is described as follows: physchem. Particulars: buffer, pH 7.4.
Series [2] in a line: in vitro. Particulars: dog, MDCK-MDR1.
Series [3] is described as follows: in vivo. The settings on record: male, CD1, mouse, brain and plasma, po.

The structures appear in SMILES notation.

Take `CN1C[C@H](Nc2nnc(-c3ccc(C(F)(F)F)cc3O)c3ccnn23)CC(F)(F)C1`: the chromatographic logD in series [1] amounted to 3.85. Further, the Papp A→B in series [2] stood at 13 ×10⁻⁶ cm/s.
In the case of `Cc1cc(C(F)(F)F)cc(O)c1-c1nnc(N[C@@H]2CCCN(C)C2)n2nccc12`, in series [3], the Kp uu came out at 0.056. In series [1], this compound displayed a chromatographic logD of 1.73. Moreover, in series [2], the Papp A→B turned out to be 26 ×10⁻⁶ cm/s.

The record behind these values is ChEMBL document CHEMBL6153123, “Discovery of Potent and Brain-Penetrant Bicyclic NLRP3 Inhibitors with Peripheral and Central In Vivo Activity” (J Med Chem, 2025).
